One data set concerns patients. Particulars: cited from earlier work.
Data set [1] relates to aldehyde-dehydrogenase enzyme. Particulars: assumed competition with NAD on active sites; cited from earlier work.
For data set [2] the following is noted: cited from earlier work.
For data set [3], the system named is mouse. Briefly: Acute toxicity for oral administration in the mouse. Type of data set: in vivo.
Assay in data set [4]: as above
Particulars: in vivo; for mortality: read-out: Mortality (M+F). Format: in vivo.

The subject of data set [5] is aldehyde dehydrogenase (ALDH). Put plainly: ALDH activity in supernatant of rat liver homogenate. Format: biochemical. Particulars: for ALDH activity: pyrazole 0.03M, propionaldehyde substrate, mean±M.S.E. of three experiments. The procedure: (§1) The ADH and ALDH activity were measured using the surnatant of rat liver homogenate. The ADH activity was measured by oxidising the ethanol to acetaldehyde in the presence of NAD in tubes containing NaGHB.
(§2) The formation of reduced nicotine-adenine dinucleotide (NADH) was determined by spectrometry measurement at 340 nm and the ALDH activity was determined in the same manner. In addition, pyrazole (0.03M) was added to the reaction mixture to inhibit ADH and propionaldehyde was added as substrate. Each value is the mean±M.S.E. of three experiments.

Data set [6] relates to craving for drinks containing ethyl alcohol. Briefly: Craving in alcohol-dependent individuals, double-blind test. Type of data set: in vivo, man. The text has this: (§3) To this end we have prepared a questionnaire entitled "Restrained Drinking and Alcohol Craving Scale" (RDAGS) and we have examined whether said questionnaire was capable of differentiating between alcoholics and non-alcoholics.
(§4) In order to obtain a further experimental confirmation of the results obtained in the open test, we have carried out a test in double-blind.
(§5) 80 individuals, alcohol dependent according to DSM III-R, were divided in two groups by simple randomization and treated with NaGHB or with a placebo at the doses of 0.05 g/kg/day divided in two administrations for a total of 60 days.

Data set [7] has as its system alcohol-preferring rats. Briefly: Voluntary consumption of ethanol in alcohol-preferring rats, NaGHB (Table 2). Format: in vivo, male Wistar rats. The note with it: for Ethanol consumption, treatment: three consecutive days. How it is done: The trial was carried out on male Wistar rats of initial weight 130-160 g. The alcohol-preferring rats were chosen from a heterogeneous rat population having an average age of 40 days. The animals were caged individually and kept in an environment at a temperature of 24° C., with light from 8.00 to 20.00 hous. The method used to select alcohol-preferring rats was to allow the animals to choose from two bottles, one containing water and the other containing an increasingly strong ethanol solution. The tapwater and the ethanol solution were administered from graduated bottles (Richter), their positon being changed irregularly to prevent the habit of drinking from the same bottle. Starting from a 3% ethanol solution, the concentration was increased by 1% every day to a maximum of 10%. This ethanol concentration was used for the whole trial period. The experiments were carried out only on rats by whom more than 60% of the liquid drunk had been 10% ethanol. The thus chosen rats imbibed a constant mean ethanol quantity of 3.2±0.4 g/rat/day. The weight of the animals during this period was 380±35 g, and therefore the consumption of absolute alcohol per rat per kg of body weight was 8±0.54 g.
Different randomly chosen groups of these animals were respectively treated with increasing doses of the sodium salt of gamma-hydroxy butyric acid (NaGHB) wheas the control group received the same volume of physiological solution (10 ml/kg). The quantity of ethanol and water imbibed was recorded before, during and after treatment at the same time each day, and the treatment was repeated for three consecutive days.
The results of this trial are given in Table 2 which compares ethanol consumption in g/kg before, during and after treatment with NaGHB at three different doses of 150, 300 and 450 mg/kg.

Data set [8] concerns mouse. Put plainly: Acute toxicity for intraperitoneal administration in the mouse. Type of data set: in vivo.
Assay in data set [9]: as above
Type of data set: in vivo. The note with it: in vivo, ip; for mortality: read-out: Mortality (M + F).

The next data set concerns rat. Put plainly: Chronic toxicity tests on the rat. Format: in vivo.
The subject of data set [10] is craving for drinks containing ethyl alcohol. Briefly: Craving in alcohol-dependent individuals, open test. Type of data set: in vivo, man.
Excerpt: as §3
(§6) Finally, to the end of proving that the craving for drinks containing ethyl alcohol ("craving" for short) can be modified by pharmacological treatment with the compositions according to the present invention, we have selected 40 alcohol-dependent individuals according to the Diagnostic and Statistic Manual, 3rd edition Revised (DMS-III R) classification.
(§7) […] a NaGHB treatment at the doses of 0.05 g/kg/day in two administrations was given for an average period of 4-6 weeks.
For comparison, a group of 40 alcoholics was examined, using the same criteria as for the NaGHB treatment groups; to this group a psychological and/or socio-rehabilitation technique was applied, with no specific pharmacological support (polyvitamins only).

In data set [11] the target is T1, alcohol dehydrogenase (ADH) (Rattus norvegicus, UniProt P06757).
T1 construct: measured using the surnatant of rat liver homogenate; from tissue; host or cells: rat liver homogenate supernatant
Briefly: ADH activity in supernatant of rat liver homogenate. The note with it: for ADH activity: mean±M.S.E. of three experiments. Format: biochemical. The procedure: as §1, §2

Data set [12] concerns craving for ethyl alcohol in alcoholics. Briefly: Clinical study, craving for ethyl alcohol in alcoholics (overall). Type of data set: in vivo, man. The note with it: overall clinical conclusion.
Excerpt: To the end of demostrating the efficacy of the pharmaceutical compositions according to the invention we have furthermore carried out some […] tests to evaluate the efficacy of GHB salts in obtaining and mantaining abstention from alcoholic drinks in man; we synthetically report herein below the methods followed and the results obtained in one of such studies.
as §6, §7, §4, §5

For data set [13], the system named is alcohol-preferring rats. Briefly: Inhibition of voluntary ethanol consumption by alcohol-preferring rats, PTT-01 (Table 1). Type of data set: in vivo, rat. The note with it: mean of 10 animals. From the text: Each value represents the mean of 10 aminals.
The mark [14] stands for this setting: 0.05 g/kg/day in two administrations, 60 days, vs placebo.

Where a name gives a salt, the structure may show the parent alone.

As a reminder, the LD50 is the dose at which mortality reaches 50%. Low values mean greater toxicity, high ones lower toxicity. As usually defined, the mortality is the percentage killed.

T1 sequence (P06757 whole entry): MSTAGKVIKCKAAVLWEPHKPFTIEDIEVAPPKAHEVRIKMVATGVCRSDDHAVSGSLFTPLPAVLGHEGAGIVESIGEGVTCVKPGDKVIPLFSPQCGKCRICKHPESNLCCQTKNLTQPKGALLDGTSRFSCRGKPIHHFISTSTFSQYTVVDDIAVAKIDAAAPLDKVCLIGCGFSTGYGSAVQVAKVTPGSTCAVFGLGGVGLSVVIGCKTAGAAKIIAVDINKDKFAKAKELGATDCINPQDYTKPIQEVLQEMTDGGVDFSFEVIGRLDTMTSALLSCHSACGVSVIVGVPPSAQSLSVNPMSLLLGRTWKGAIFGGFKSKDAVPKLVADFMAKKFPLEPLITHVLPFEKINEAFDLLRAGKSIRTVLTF

On to `CCN(CC)C(=S)SSC(=S)N(CC)CC` [disulfiram], for which the “toxicity when administered alone” value in the data set with patients (alone, therapeutic doses) is reported as “not toxic, although not completely innocuous”. Besides, the side effects entry with patients (disulfiram itself) was “can cause acneform eruptions, allergic dermatitis, urticaria, tiredness, fatique, tremors, reduced sexual power, gastric disturbances and digestive disturbances”. Further, the “adverse reactions following disulfiram treatment” value in the data set with patients (following treatment, discussed with ingestion of alcohol) is “cases of respiratory depression, cardiovascular collapse, cardiac arrhythmia, myocardium infarct, and sudden or unexpected death have occurred”. In the data set on patients (patients treated), the “refusal of alcoholic drinks” value is reported as “refuse alcoholic drinks”. In [1], the acetaldehyde oxidation rate entry was “reducing the acetaldehyde oxidation rate”. Moreover, the “acetaldehyde level in the blood, times greater than with alcohol alone” value in [2] (alcohol after disulfiram pretreatment vs same dose of alcohol only) is on record as 5-10 times. Besides, the acetaldehyde concentration result in data set [2] (in the presence of disulfiram) is “acetaldehyde concentration increases”.

With `O=C(O)CCCO` [NaGHB, sodium salt of gamma-hydroxybutyric acid], the median lethal dose (LD50) in the data set with mouse [3] is 12014 mg/kg; in data set [4] (Table 4, 95% CL 10.95-13.17) it was 12000 mg/kg; with mouse [8] it was 3210 mg/kg; in data set [9] (Table 5, 95% CL 2.92-3.521) it was 3210 mg/kg. Further, the mortality in [4] (10000 mg/kg, 10 g/kg) worked out at 0%; in data set [4] (11000 mg/kg, 11 g/kg), 33.3%; in data set [4] (13000 mg/kg, 13 g/kg), 66.6%; in data set [4] (15000 mg/kg, 15 g/kg) it was 100%; in [9] (2500 mg/kg, 2.5 g/kg), 0%; in data set [9] (3000 mg/kg, 3 g/kg), 33.3%. Also, the mortality in data set [9] (3500 mg/kg, 3.5 g/kg) is 66.7%; in data set [9] (4000 mg/kg, 4 g/kg), 100%. The acetaldehyde metabolism entry in [5] was “without in any way altering acetaldehyde metabolism”. In addition, the figures for the ALDH activity in data set [5] (10^-3 molar), in data set [5] (10^-4 molar) and in [5] (10^-5 molar) were 0.0132 ± 0.0009 D.O/min/mg prot, 0.0138 ± 0.0011 D.O/min/mg prot and 0.0135 ± 0.0010 D.O/min/mg prot, respectively. The “inhibition of aldehyde dehydrogenase (ALDH)” value in data set [5] (up to 10^-3 M) was “does not inhibit”. The drop-out percentage entry in data set [6] (setting [14]) is on record as “lower, statistically significant, drop-out percentage”. Moreover, in data set [6] (setting [14]), the “improvement of the craving” value was “notable improvement of the craving”. In addition, the “Craving decrease induced by NaGHB” value in data set [6] (40 alcohol dependents in double blind test (Table 6)) and in data set [10] (40 alcohol-dependents in open test (Table 6)) was “Efficient” throughout. Further, the “Ethanol consumption, post-treatment” value is given as 7.02 ± 0.44 g/kg in the data set with alcohol-preferring rats [7] (NaGHB 150 mg/kg), 5.88 ± 0.35 g/kg with alcohol-preferring rats [7] (NaGHB 300 mg/kg) and 5.10 ± 0.48 g/kg in the data set with alcohol-preferring rats [7] (NaGHB 450 mg/kg). Also, the “Ethanol consumption, pretreatment” value came to 7.71 ± 0.51 g/kg with alcohol-preferring rats [7] (NaGHB 150 mg/kg group), 7.48 ± 0.35 g/kg in the data set with alcohol-preferring rats [7] (NaGHB 300 mg/kg group) and 7.82 ± 0.46 g/kg in the data set with alcohol-preferring rats [7] (NaGHB 450 mg/kg group). The “Ethanol consumption, treatment” value is reported as 6.11 ± 0.21 g/kg in the data set on alcohol-preferring rats [7] (NaGHB 150 mg/kg), 3.43 ± 0.23 g/kg in the data set with alcohol-preferring rats [7] (NaGHB 300 mg/kg) and 2.12 ± 0.11 g/kg in the data set on alcohol-preferring rats [7] (NaGHB 450 mg/kg). Further, the “consumption of ethyl alcohol relative to consumption before treatment” value in the data set on alcohol-preferring rats [7] (daily administration, 450 mg/kg) is recorded as “below 50%”. Also, in the data set with alcohol-preferring rats [7] (during treatment), the total imbibed fluid result was “no significant reduction in total imbibed fluid”. In addition, the “Alcohol consumption and preference for alcohol after interrupting administration” value in the data set with alcohol-preferring rats [7] (five days after interruption) is “returned to their pre-treatment levels five days after interrupting the administration of the medicament”. Moreover, the “toxic action at organ level” value in the data set on rat was “No toxic action at organ level was observed”. For the same molecule, in [10] (0.05 g/kg/day in two administrations, 4-6 weeks), the craving reduction result was “statistically highly significant craving reduction”. Further, the ADH activity in data set [11] (10^-3 molar) came to 0.0239 ± 0.0015 D.O/min/mg prot; in [11] (10^-4 molar), 0.0240 ± 0.0018 D.O/min/mg prot; in data set [11] (10^-5 molar), 0.0245 ± 0.0018 D.O/min/mg prot. In [11] (up to 10^-3 M), the “inhibition of alcohol dehydrogenase (ADH)” value is “does not inhibit”.

For `O=C(O)CCCO` [GHB, gamma-hydroxybutyric acid], the “suppression of craving for ethyl alcohol in alcoholics” value in [12] is reported as “surprising activity of GHB in suppressing the craving for ethyl alcohol in alcoholics”.

Turning to `CCCCC(=O)NC1CCOC1=O` (stereo not drawn) [PTT-01, α-n-butyl carbonylamino-gamma-butyro lactone], the entries for the “Ethanol consumption, pretreatment” value in the data set on alcohol-preferring rats [13] (PTT-01 100 mg/kg group), in the data set on alcohol-preferring rats [13] (PTT-01 200 mg/kg group) and with alcohol-preferring rats [13] (PTT-01 300 mg/kg group) were 7.21 ± 0.40 g/kg, 7.70 ± 0.28 g/kg and 7.08 ± 0.19 g/kg, respectively. In addition, the “Ethanol consumption, post-treatment” value came to 7.24 ± 0.44 g/kg with alcohol-preferring rats [13] (PTT-01 100 mg/kg), 7.36 ± 0.51 g/kg in the data set on alcohol-preferring rats [13] (PTT-01 200 mg/kg) and 6.98 ± 0.15 g/kg with alcohol-preferring rats [13] (PTT-01 300 mg/kg). The results for the “Ethanol consumption, treatment” value with alcohol-preferring rats [13] (PTT-01 100 mg/kg), with alcohol-preferring rats [13] (PTT-01 200 mg/kg) and in the data set on alcohol-preferring rats [13] (PTT-01 300 mg/kg) were 7.03 ± 0.38 g/kg, 7.51 ± 0.41 g/kg and 7.00 ± 0.46 g/kg, respectively.

The record behind these values is patent US4983632A, “Use of gamma-hydroxybutyric acid salts for preparing pharmaceutical compositions for use in the treatment of alcoholism, and the compositions obtained” (Laboratorio Farmaceutico C.T. S.r.l., priority 1988, dated 1991).
